For one test, the target named is T1, cathepsin L (Homo sapiens, UniProt P07711).
T1 construct: purchased R&D Systems
Description: in vitro protease inhibition assay, cathepsin L. In kind it is biochemical. The note with it: z-FR-AMC substrate, MES buffer pH 5.5. The method, then:
(§1) Protease Inhibition Assays. Detailed information about synthesis of N-Boc-protected peptidyl aldehydes and their deprotection for protease inhibition activity tests are available in the Extended Experimental Procedures. For protease inhibition assays, all fluorescence measurements were made on a Biotek H4 instrument. Buffering reagents were purchased from Sigma-Aldrich and sterile-filtered prior to use. Compounds and substrates were diluted from DMSO stocks into water/DMSO such that final DMSO plate concentrations were below 5% during the reaction. All reactions were started by the addition of substrate to the enzyme/compound solutions (see also Extended Experimental Procedures).
Deprotection of Boc-protected dipeptide aldehyde compounds. All the deprotection experiments were performed in an anaerobic chamber. Trifluoroacetic acid (TFA) was added to the purified Boc-protected dipeptidyl aldehydes. 1 μL of the reaction was added to 100 μL 80% DMSO in ddH2O and a 0.5 μL portion of the solution was examined by an Agilent 6530 qTOF LC/MS. For preparing dipeptide aldehyde solution for protease inhibition assays, the deprotection reaction was left at 30° C. for 15 mins. Then ddH2O was added to quench the reaction and give a 2.5 mM peptidyl aldehydes in 1% TFA solution. Some side products like isobutylene and their corresponding imine and pyrazinone products have poor water solubility. […]

Another test concerns the target T2, cathepsin S (Homo sapiens, UniProt P25774).
T2 construct: purchased R&D Systems
Description: in vitro protease inhibition assay, cathepsin S. The note with it: z-FR-AMC substrate, MES buffer pH 5.5, read-out: activity against cathepsin S. In kind it is biochemical. The method, then:
as §1
Detailed procedures for protease inhibition assays. Enzymes: cathepsin L, cathepsin B, cathepsin C and cathepsin S were purchased from R&D Systems trypsin, chymotrypsin and calpain I were purchased from Sigma-Aldrich. Calpain I was also purchased from Abcam. Human 20s proteasome was purchased from Boston Biochem.
Substrates: z-FR-AMC, Boc-IEGR-AMC, Suc-ALPF-AMC and GR-AMC were purchased from Bachem. Suc-LLVY-AMC was purchased from Anaspec. Substrates were used without further purification.
Inhibitors: Carfilzomib was a generous gift from Onyx Pharmaceuticals and was used as a positive control in the proteasome inhibition assay. […]

A further test has as its target T3, cathepsin B (CTSB) (Homo sapiens, UniProt P07858).
T3 construct: We treated membrane preparations of the human innate immune (monocytic) cell line THP-1 with the bgc35 product Phe-Phe-H; endogenous in cells; host or cells: THP-1 membrane fraction
Description: competitive isoTOP-ABPP, blockade of IA-alkyne labeling, cathepsin B. The test is classed as binding. The note with it: THP-1 membranes, 250 nM Phe-Phe-H. An excerpt: (§2) The proteases we assayed were chosen based on literature precedent. To determine the target of the peptide aldehydes in an unbiased way, we applied a quantitative chemical proteomic method, termed isoTOP-ABPP (Weerapana et al. 2010, Backus et al., 2016) to measure the global interactions of a representative dipeptide aldehyde, bgc35 product Phe-Phe-H, with cysteine residues in the human cell lysates. We treated membrane preparations of the human innate immune (monocytic) cell line THP-1 with the bgc35 product Phe-Phe-H or vehicle, and then these samples were treated with a cysteine reactive iodoacetamide-alkyne (IA-alkyne) probe and conjugated to an isotopically differentiated (heavy or light, respectively) TEV protease-cleavable biotin tag using copper-catalyzed azide-alkyne cycloaddition (CuAAC or click) chemistry. Vehicle- and peptide-treated samples were then combined, enriched, subjected to sequential trypsin and TEV digests and evaluated by LC-MS/MS. Site-specific blockade of IA-alkyne labeling as measured by quantitation of heavy/light MS1 chromatographic peaks designates cysteine residues that are targeted by Phe-Phe-H (heavy/light ratios, or R values>5; line, FIG. 3D). […]

Test [1] concerns more than 3500 total quantified cysteines across three different human cell proteomes. The experiment in a line: competitive isoTOP-ABPP, proteome-wide selectivity over non-cathepsin cysteines. The note with it: more than 3500 quantified cysteines, no additional targets. In kind it is binding.
Source text: as §2

A further test deals with T4, cathepsin S (CTSS) (Homo sapiens, UniProt P25774).
T4 construct: We treated membrane preparations of the human innate immune (monocytic) cell line THP-1 with the bgc35 product Phe-Phe-H; endogenous in cells; host or cells: THP-1 membrane fraction
T4 sequence (P25774 115-331): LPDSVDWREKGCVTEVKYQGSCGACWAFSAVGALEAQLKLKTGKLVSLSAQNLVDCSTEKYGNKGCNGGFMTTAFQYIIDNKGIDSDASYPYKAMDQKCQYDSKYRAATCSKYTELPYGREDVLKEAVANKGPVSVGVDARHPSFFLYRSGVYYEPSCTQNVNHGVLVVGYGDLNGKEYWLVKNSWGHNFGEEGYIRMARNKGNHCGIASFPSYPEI
Description: competitive isoTOP-ABPP, blockade of IA-alkyne labeling, cathepsin S. The test is classed as binding.
Source text: as §2

A further test has as its target T5, cathepsin C (CTSC) (Homo sapiens, UniProt P53634).
T5 construct: endogenously expressed CTSC is post-translationally regulated; endogenous in cells; host or cells: THP-1 membrane fraction
The experiment in a line: competitive isoTOP-ABPP, blockade of IA-alkyne labeling, cathepsin C. In kind it is binding.
Source text: as §2

Another test deals with T6, cathepsin Z (CTSZ) (Homo sapiens, UniProt Q9UBR2).
T6 construct: We treated membrane preparations of the human innate immune (monocytic) cell line THP-1 with the bgc35 product Phe-Phe-H; endogenous in cells; host or cells: THP-1 membrane fraction
T6 sequence (Q9UBR2 62-303): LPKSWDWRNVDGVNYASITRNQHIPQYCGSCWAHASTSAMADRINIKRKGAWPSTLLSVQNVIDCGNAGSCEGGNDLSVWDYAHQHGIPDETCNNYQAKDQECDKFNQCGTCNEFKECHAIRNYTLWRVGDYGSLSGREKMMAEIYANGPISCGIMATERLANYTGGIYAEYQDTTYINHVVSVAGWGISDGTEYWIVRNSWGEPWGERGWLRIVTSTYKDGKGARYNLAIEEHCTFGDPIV
Description: competitive isoTOP-ABPP, blockade of IA-alkyne labeling, cathepsin Z. The test is classed as binding.
Source text: as §2

Another test addresses T7, cathepsin H (CTSH) (Homo sapiens, UniProt P09668).
T7 construct: We treated membrane preparations of the human innate immune (monocytic) cell line THP-1 with the bgc35 product Phe-Phe-H; endogenous in cells; host or cells: THP-1 membrane fraction
T7 sequence (P09668 98-335): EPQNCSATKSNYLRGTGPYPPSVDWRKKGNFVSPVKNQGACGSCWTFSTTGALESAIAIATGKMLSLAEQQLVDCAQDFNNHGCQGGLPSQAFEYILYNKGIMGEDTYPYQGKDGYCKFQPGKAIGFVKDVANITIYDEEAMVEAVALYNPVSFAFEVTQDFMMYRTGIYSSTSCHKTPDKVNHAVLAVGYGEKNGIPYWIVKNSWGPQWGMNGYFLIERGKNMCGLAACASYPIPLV
Description: competitive isoTOP-ABPP, blockade of IA-alkyne labeling, cathepsin H. In kind it is binding. The note with it: THP-1 membranes, 250 nM Phe-Phe-H.
Source text: as §2

Another test deals with T8, cathepsin L (CTSL1) (Homo sapiens, UniProt P07711).
T8 construct: We treated membrane preparations of the human innate immune (monocytic) cell line THP-1 with the bgc35 product Phe-Phe-H; endogenous in cells; host or cells: THP-1 membrane fraction
T8 sequence (P07711 114-333): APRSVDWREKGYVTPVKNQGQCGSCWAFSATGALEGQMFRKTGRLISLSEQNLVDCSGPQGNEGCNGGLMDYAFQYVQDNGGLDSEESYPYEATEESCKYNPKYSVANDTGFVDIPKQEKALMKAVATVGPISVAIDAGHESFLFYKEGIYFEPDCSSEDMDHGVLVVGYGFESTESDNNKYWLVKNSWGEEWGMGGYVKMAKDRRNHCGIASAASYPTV
The experiment in a line: competitive isoTOP-ABPP, blockade of IA-alkyne labeling, cathepsin L. The note with it: THP-1 membranes, 250 nM Phe-Phe-H. In kind it is binding.
Source text: as §2

[2] abbreviates: THP-1 and other human cell proteomes (Ramos, H1975), 25 μM Phe-Phe-H.
Where [3] appears, read: THP-1 membranes, 250 nM Phe-Phe-H.

Residues, ends and D or L forms follow the SMILES beside them. *: point of attachment. Octanoyl = CCCCCCCC(=O)*

T5 sequence (P53634 25-463): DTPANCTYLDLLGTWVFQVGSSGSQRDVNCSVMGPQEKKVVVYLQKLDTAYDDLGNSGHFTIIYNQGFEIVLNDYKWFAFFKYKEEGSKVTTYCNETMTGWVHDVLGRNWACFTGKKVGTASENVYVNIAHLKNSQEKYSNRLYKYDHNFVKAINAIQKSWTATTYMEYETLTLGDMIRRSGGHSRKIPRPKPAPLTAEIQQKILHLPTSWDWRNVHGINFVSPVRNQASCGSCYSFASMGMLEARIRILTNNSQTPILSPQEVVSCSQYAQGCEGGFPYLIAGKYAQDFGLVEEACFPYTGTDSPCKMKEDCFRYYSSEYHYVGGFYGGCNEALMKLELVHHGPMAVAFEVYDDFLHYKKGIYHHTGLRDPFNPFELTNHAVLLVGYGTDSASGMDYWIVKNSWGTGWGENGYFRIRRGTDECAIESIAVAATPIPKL
T1 sequence (P07711 114-333): as the sequence (P07711 114-333) above
T2 sequence (P25774 115-331): as the sequence (P25774 115-331) above

Turning to `CCCCCCCC(=O)N[C@@H](CCSC)C(=O)N[C@H](C=O)Cc1ccccc1` [Compound 16, N-octanoyl-Met-Phe-H] (Octanoyl-Met-Phe-aldehyde), the “inhibitory activity (IC50) against cathepsin L” value at cathepsin L is on record as “undetectable activity”. Besides, the IC50 at cathepsin S turned out to be 13 nM.
On to `N[C@@H](Cc1ccccc1)C(=O)N[C@H](C=O)Cc1ccccc1` [Phe-Phe-H] (H-Phe-Phe-aldehyde), for which the “heavy/light MS1 ratio (R value), CTSB” value on cathepsin B (CTSB) was under 2.0. In test [1], the “heavy/light MS1 ratio (R value), additional (non-cathepsin) cysteines” value is on record as under 2.0. Also, the “heavy/light MS1 ratio (R value), CTSS” value is recorded as over 5 on cathepsin S (CTSS) (setting [2]) and under 2.0 at cathepsin S (CTSS) (setting [3]). Moreover, the “heavy/light MS1 ratio (R value), CTSC” value at cathepsin C (CTSC) (setting [2]) is on record as over 5. The “heavy/light MS1 ratio (R value), CTSC catalytic cysteine Cys258” value at cathepsin C (CTSC) (setting [3]) is over 2.78. Moreover, the “heavy/light MS1 ratio (R value), CTSZ” value on cathepsin Z (CTSZ) (setting [2]) is given as over 5; on cathepsin Z (CTSZ) (setting [3]), under 2.0. Also, the “heavy/light MS1 ratio (R value), CTSH” value on cathepsin H (CTSH) was under 2.0. Besides, the “heavy/light MS1 ratio (R value), CTSL1 catalytic cysteine Cys138” value at cathepsin L (CTSL1) is given as over 20.

These data come from US11124498B2, “Compositions and methods for modulating protease activity” (THE REGENTS OF THE UNIVERSITY OF CALIFORNIA, priority 2016, dated 2021).
